From patent US5498632A, “Esters of acyl carnitines with long-chain aliphatic alcohols and pharmaceutical compositions containing same having antibacterial activity” (Sigma-Tau Industrie Farmaceutiche Riunite S.p.A., priority 1992, dated 1996)
Values joined by “and” are separate entries in the source; they are usually repeats but may differ in a detail not shown here. Identical values can stand only once.

Tests used:
Gram+ bacterial strains = assay: Mean MIC in broth and resistant strain number, Gram+ strains; format: cell-based; settings: 18 h, versus susceptible strains
Protocol: Evaluation of the Minimal Inhibitory Concentration (MIC) in broth of 15 new substances for Gram+ bacterial strains.
The following strains were used: Staphylococcus aureus (4); Streptococcus faecalis (8); Bacillus pumilus (1); Bacillus subtilis (1).
MICs were determined by a standard microdilution test, using serial two-fold dilutions of the substances in Mueller-Hinton broth.
The inoculum was prepared from an overnight culture in Mueller-Hinton broth matching the 0.5 Mc Farland (turbidity) standard (BRAY W. E., Clinical Laboratory Methods, 5th Ed. C. V. MOSBY, St. Louis, Mo. 1957), and was adjusted to a final concentration of 5.0×10^4 colony-forming units/ml.
Equal volumes (0.1 ml) of both bacterial suspensions and substance solutions were distributed in microtiter plates (Falcon, 96 wells, round bottom), and then placed in a humidified incubator (37° C.) for 18 hours.
The results, in terms of MIC values, resistant strain number and mean MIC values versus susceptible strains, are illustrated in Tables 1-6.

[1] = tested on: lymphoid organs (spleen and thymus), splenocytes; assay: Test 3: body, spleen and thymus weight and splenocyte concentration; format: in vivo, mouse (male B6 D2 F1); settings: 100 mg/kg/day for 5 consecutive days, oral
Protocol: Evaluation of the effect of repeated oral administrations of ST 722 on the body, spleen and thymus weight, and on the splenocyte concentration in mice.
Male B6 D2 F1 mice (C. River) aged 10 weeks (5 animals each group) were orally treated with the substance ST 722 at the dose of 100 mg/kg/day for 5 consecutive days. Twenty-four hours after the last administration, the animals were sacrificed, the organs removed and weighed, and the splenocyte number determined.

Gram- bacterial strains = assay: Mean MIC in broth and resistant strain number, Gram- strains; format: cell-based; settings: 18 h; Gram- strains; versus susceptible strains; read-out: Mean MIC values
Summary of the method: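 Broth microdilution with serial two-fold dilutions in Mueller-Hinton broth. Inoculum from overnight culture matched to 0.5 McFarland and adjusted to 5.0×10^4 CFU/ml final; plates incubated 18 h at 37 °C in humidified conditions.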

[2] = tested on: murine lymphoid organs (spleen and thymus); assay: Test 2: weight of murine lymphoid organs after repeated oral administration; format: in vivo, mouse (male B6 D2 F1); settings: 100 mg/kg/day for 7 consecutive days
Protocol: Evaluation of the effect of repeated oral administrations of ST 722 on the weight of murine lymphoid organs (spleen and thymus).
Male B6 D2 F1 mice (C. River) aged 7 weeks (7-8 animals each group) were orally treated with the substance ST 722 at the dose of 100 mg/kg/day for 7 consecutive days. Twenty-four hours after the last administration, the animals were sacrificed, the organs removed and weighed.

[3] = tested on: Staphylococcus aureus (S. aureus LC1); assay: Protective effect in subcutaneous experimental infection in mice; format: in vivo, Staphylococcus aureus in mouse (male CD1); settings: for Number of bacteria/mouse: 24 hours
Protocol: Male CD1 (C. River) mice aged 9 weeks were used (4 animals per group).
A pathogenic strain of Staphylococcus aureus (S. aureus LC1), isolated from a systemic infection in nude mice, was utilized.
The bacterial cells (kept under liquid nitrogen) are thawed and seeded in 10 ml of TSB medium and finally incubated for approximately 18 hours at 37° C.
The culture is then diluted in sterile saline so as to have 2.2×10^7 bacterial cells in a volume of 0.2 ml.
ST 722 was administered subcutaneously, immediately after bacterial inoculation, at the doses of 5, 20, and 50 mcg in 0.2 ml of sterile saline (single treatment).
ST 722 was administered subcutaneously at a dose of 50 mcg (in 0.2 ml of sterile saline) immediately after bacterial inoculation and again 5 hours later, i.e. 100 total mcg per mouse (double treatment).
The "in vivo" experimental model described by Grunberg et al. (GRUNBERG, E., BERGER, J., BESKID, G., CLEELAND, R., PRINCE, N. H. and TITSWORTH, E., 1967. Studies on the "in vitro" and "in vivo" chemotherapeutic properties of the antibiotics myxin. Chemotherapia 12, 272-281) was utilized.
Briefly, it consisted of a subcutaneous injection into the center of the abdominal wall of the standardized bacterial suspension followed by the s.c. administration of the substance in the same area according to the 2 protocols above.
After 24 hours, the animals were sacrificed, and the abdominal wall (including the peritoneum) was exicised from each animal.
The tissue samples were first homogenized by a Potter-Elvehjem tissue grinder in 5 ml of a sterile saline, then a bacterial count was performed by plating the samples onto a S. aureus selective medium (Baird-Parker agar additioned with Ey tellurite enrichment), which allows to easily detect the number of Staphylococcus colonies.
The number of colonies scored in a series of dilutions for each single sample consents to calculate the number of bacterial cells present in the infected tissue sample as follows: [formula] Where Zi is the number of dilutions performed, Ni is the number of plates prepared for each dilution, and Ci is the total number of bacteria scored in each dilution.

## CCCCCCCCCCCOC(=O)CC(C[N+](C)(C)C)OC(=O)CC(C)C [ST 722, Isovaleryl-L-Carnitine Undecyl Ester Chloride]
Gram+ bacterial strains
  MIC: 3.12 µg/mL
[1]
  Body weight: 26.50 ± 0.53 g
  Spleen weight: 73.25 ± 3.84 mg
  Thymus weight: 38.80 ± 3.01 mg
  specific immunotoxic effects on the considered parameters: lack of specific immunotoxic effects
Gram- bacterial strains
  MIC: 35.7 µg/mL
[2]
  Body weight: 22.74 ± 0.37 g
  Spleen weight: 77.88 ± 2.38 mg
  Thymus weight: 52.88 ± 3.20 mg
  immunotoxic effect on the parameters examined: did not provoke any immunotoxic effect
[3]; double treatment s.c., 50 mcg twice (5 hours apart)
  Number of bacteria/mouse: 3.1×10^5 bacteria/mouse and 5.61 × 10^5 bacteria/mouse
[3]; single treatment s.c., 5 mcg
  reduction of the infective process: unable to reduce the infective process
[3]; single treatment s.c., 5 mcg, control 1.11 × 10^8
  Number of bacteria/mouse: 1.21 × 10^8 bacteria/mouse
[3]; single treatment s.c., 20 and 50 mcg
  reduction of bacterial infection extent: dose-dependently reduced in an appreciable manner the bacterial infection extent
[3]; single treatment s.c., 20 mcg, control 1.11 × 10^8
  Number of bacteria/mouse: 1.21 × 10^8 bacteria/mouse
[3]; single treatment s.c., 50 mcg, control 1.11 × 10^8
  Number of bacteria/mouse: 5.61 × 10^5 bacteria/mouse
